Reference: ChEMBL document CHEMBL1201862, “PubChem BioAssay data set” (2004)
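A five-concentration, 48-hour dose response in 96-well plates underlies each endpoint, interpolated linearly between surrounding concentrations. Here, GI50 denotes the concentration required for 50% inhibition of growth.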 The source made the active and inactive calls. No stated cut-off is given here; in the data, active = GI50 up to about 1.1 µM and inactive = higher.

Columns and labels:
Assay in all cases: growth of human tumour cells (NCI), 48 h
Malme-3M = test system: Malme-3M
EKVX = test system: EKVX
COLO 205 = test system: COLO 205
UACC-62 = test system: UACC-62
SF-295 = test system: SF-295
SN12C = test system: SN12C
K562 = test system: K562
SK-MEL-5 = test system: SK-MEL-5
MCF7 = test system: MCF7
NCI/ADR-RES = test system: NCI/ADR-RES
HOP-62 = test system: HOP-62
MOLT-4 = test system: MOLT-4
ACHN = test system: ACHN
U-251 = test system: U-251
MDA-N = test system: MDA-N
HCT-15 = test system: HCT-15
DU-145 = test system: DU-145
NCI-H522 = test system: NCI-H522
NCI-H460 = test system: NCI-H460

CCOc1ccc2c(c1)c(=O)c1c(NCCN(CC)CC)ccc3nnn2c31 was tested, and the GI50 (Malme-3M) was 17.1 µM (inactive), the GI50 (EKVX) was 83.2 µM (inactive) and the GI50 (COLO 205) was 33.9 µM (inactive). For the same compound, the GI50 (UACC-62) was > 100 µM (inactive), the GI50 (SF-295) was > 35.6 µM (inactive) and the GI50 (SN12C) was 9.82 µM (inactive). The GI50 (K562) was 18.2 µM (inactive), the GI50 (SK-MEL-5) was 16.3 µM (inactive) and the GI50 (MCF7) was 12.3 µM (inactive). The GI50 (NCI/ADR-RES) was 12.3 µM (inactive), the GI50 (HOP-62) was > 31.4 µM (inactive) and the GI50 (MOLT-4) was 3.34 µM (inactive). The GI50 (ACHN) was 15.6 µM (inactive), the GI50 (U-251) was 19.7 µM (inactive) and the GI50 (MDA-N) was 17.5 µM (inactive). The GI50 (HCT-15) was 16.9 µM, the GI50 (DU-145) was 19.1 µM (inactive) and the GI50 (NCI-H522) was 7.6 µM (inactive). The GI50 (NCI-H460) was 10.9 µM (inactive).
In the case of Cc1nc2c(Cl)cc(Cl)cc2c(Cl)c1CCCl, the GI50 (Malme-3M) is reported as > 100 µM (inactive), the GI50 (EKVX) is reported as 78.2 µM (inactive) and the GI50 (COLO 205) is reported as > 100 µM (inactive). The GI50 (UACC-62) was 79.6 µM (inactive), the GI50 (SF-295) was > 100 µM (inactive) and the GI50 (SN12C) was > 100 µM (inactive). The GI50 (K562) was 80.5 µM (inactive), the GI50 (SK-MEL-5) was 45.8 µM (inactive) and the GI50 (MCF7) was > 100 µM (inactive). For the same compound, the GI50 (NCI/ADR-RES) was 72.3 µM (inactive), the GI50 (HOP-62) was > 100 µM (inactive) and the GI50 (MOLT-4) was 55 µM (inactive). The GI50 (ACHN) was > 100 µM (inactive), the GI50 (U-251) was > 100 µM (inactive) and the GI50 (MDA-N) was > 100 µM (inactive). The GI50 (HCT-15) was 60.5 µM, the GI50 (DU-145) was > 100 µM (inactive) and the GI50 (NCI-H522) was 87.1 µM (inactive). For the same compound, the GI50 (NCI-H460) was > 100 µM (inactive).
c1ccc2sc(SSSc3nc4ccccc4s3)nc2c1 was tested, and the GI50 (Malme-3M) was > 100 µM (inactive), the GI50 (EKVX) was > 100 µM (inactive) and the GI50 (COLO 205) was > 100 µM (inactive). The GI50 (UACC-62) was > 100 µM (inactive), the GI50 (SF-295) was > 100 µM (inactive) and the GI50 (SN12C) was > 100 µM (inactive). For the same compound, the GI50 (K562) was > 100 µM (inactive), the GI50 (SK-MEL-5) was > 100 µM (inactive) and the GI50 (MCF7) was 44.1 µM (inactive). For the same compound, the GI50 (NCI/ADR-RES) was > 100 µM (inactive), the GI50 (HOP-62) was > 100 µM (inactive) and the GI50 (MOLT-4) was 77.3 µM (inactive). The GI50 (ACHN) was > 100 µM (inactive), the GI50 (U-251) was > 100 µM (inactive) and the GI50 (MDA-N) was > 100 µM (inactive). The GI50 (HCT-15) was 27.7 µM, the GI50 (DU-145) was > 100 µM (inactive) and the GI50 (NCI-H522) was 23 µM (inactive). For the same compound, the GI50 (NCI-H460) was 44.7 µM (inactive).
For Oc1ccc(O)c(CNc2ccc(C(O)C(F)(F)F)cc2)c1 (configuration not stated), the GI50 (Malme-3M) was 15.6 µM (inactive), the GI50 (EKVX) was 14.5 µM (inactive) and the GI50 (COLO 205) was 18.5 µM (inactive). For the same compound, the GI50 (UACC-62) was 15.7 µM (inactive), the GI50 (SF-295) was 16.4 µM (inactive) and the GI50 (SN12C) was 18.1 µM (inactive). For the same compound, the GI50 (K562) was 11.9 µM (inactive), the GI50 (SK-MEL-5) was 29.3 µM (inactive) and the GI50 (MCF7) was 21.8 µM (inactive). For the same compound, the GI50 (NCI/ADR-RES) was 8.43 µM (inactive), the GI50 (HOP-62) was 15.6 µM (inactive) and the GI50 (MOLT-4) was 5.01 µM (inactive). The GI50 (ACHN) was 13.7 µM (inactive), the GI50 (U-251) was 35.8 µM (inactive) and the GI50 (MDA-N) was 9.86 µM (inactive). The GI50 (HCT-15) was 13.7 µM, the GI50 (DU-145) was 14.5 µM (inactive) and the GI50 (NCI-H522) was 1.66 µM (inactive). The GI50 (NCI-H460) was 21.5 µM (inactive).
CC1CCC2(C(=O)O)CCC3(C)C(=CCC4C5(C)CC(O)C(O)C(C)(CO)C5C(O)CC43C)C2C1C (configuration not stated) was tested, and the GI50 (Malme-3M) was 47.5 µM (inactive), the GI50 (EKVX) was > 89.3 µM (inactive) and the GI50 (COLO 205) was 50 µM (inactive). The GI50 (UACC-62) was 21.3 µM (inactive), the GI50 (SF-295) was 74.5 µM (inactive) and the GI50 (SN12C) was 2.12 µM (inactive). For the same compound, the GI50 (K562) was 41.1 µM (inactive), the GI50 (SK-MEL-5) was 41.8 µM (inactive) and the GI50 (MCF7) was 41.5 µM (inactive). The GI50 (NCI/ADR-RES) was > 100 µM (inactive), the GI50 (HOP-62) was 45.4 µM (inactive) and the GI50 (MOLT-4) was 58.2 µM (inactive). For the same compound, the GI50 (ACHN) was > 100 µM (inactive), the GI50 (U-251) was 21.6 µM (inactive) and the GI50 (MDA-N) was 11.1 µM (inactive). For the same compound, the GI50 (HCT-15) was > 100 µM, the GI50 (DU-145) was > 100 µM (inactive) and the GI50 (NCI-H522) was 17.5 µM (inactive). For the same compound, the GI50 (NCI-H460) was > 100 µM (inactive).
For CC(=O)Oc1ccc2ccc(=O)oc2c1OC(C)=O, the GI50 (Malme-3M) was > 100 µM (inactive), the GI50 (EKVX) was 67.8 µM (inactive) and the GI50 (COLO 205) was 24.4 µM (inactive). For the same compound, the GI50 (UACC-62) was 43.9 µM (inactive), the GI50 (SF-295) was 41.5 µM (inactive) and the GI50 (SN12C) was 19 µM (inactive). For the same compound, the GI50 (K562) was 41.9 µM (inactive), the GI50 (SK-MEL-5) was 27.2 µM (inactive) and the GI50 (MCF7) was 46.3 µM (inactive). The GI50 (NCI/ADR-RES) was 50.6 µM (inactive), the GI50 (HOP-62) was 29.5 µM (inactive) and the GI50 (MOLT-4) was 33.3 µM (inactive). The GI50 (ACHN) was 45.4 µM (inactive), the GI50 (U-251) was 50.2 µM (inactive) and the GI50 (MDA-N) was 49.8 µM (inactive). The GI50 (HCT-15) was 11.6 µM, the GI50 (DU-145) was > 100 µM (inactive) and the GI50 (NCI-H522) was 39.5 µM (inactive). For the same compound, the GI50 (NCI-H460) was 14.9 µM (inactive).
CC(C)(C)c1cc(C(C)(C)C)c(SC2OC(CO)C(O)C(O)C2O)c(O)c1O (configuration not stated) was tested, and the GI50 (Malme-3M) was 12.6 µM (inactive), the GI50 (EKVX) was 10.8 µM (inactive) and the GI50 (COLO 205) was 8.45 µM (inactive). The GI50 (UACC-62) was 2.2 µM (inactive), the GI50 (SF-295) was 8.39 µM (inactive) and the GI50 (SN12C) was 10.8 µM (inactive). The GI50 (K562) was 2.93 µM (inactive), the GI50 (SK-MEL-5) was 5.57 µM (inactive) and the GI50 (MCF7) was 5.4 µM (inactive). For the same compound, the GI50 (NCI/ADR-RES) was 10.3 µM (inactive), the GI50 (HOP-62) was 13.2 µM (inactive) and the GI50 (MOLT-4) was 9.1 µM (inactive). The GI50 (ACHN) was 6.53 µM (inactive), the GI50 (U-251) was 7.43 µM (inactive) and the GI50 (MDA-N) was 4.12 µM (inactive). The GI50 (HCT-15) was 4.54 µM, the GI50 (DU-145) was 13.7 µM (inactive) and the GI50 (NCI-H522) was 7.21 µM (inactive). The GI50 (NCI-H460) was 3.24 µM (inactive).
CCOC(=O)C1(Cc2ccccc2)CCN(C(=O)c2ccccc2)C2C1C2(Cl)Cl (configuration not stated) was tested, and the GI50 (Malme-3M) was 21.4 µM (inactive), the GI50 (EKVX) was 19.3 µM (inactive) and the GI50 (COLO 205) was 18.3 µM (inactive). The GI50 (UACC-62) was 12 µM (inactive), the GI50 (SF-295) was 23.3 µM (inactive) and the GI50 (SN12C) was 16.4 µM (inactive). For the same compound, the GI50 (K562) was 27 µM (inactive), the GI50 (SK-MEL-5) was 15.9 µM (inactive) and the GI50 (MCF7) was 25.4 µM (inactive). The GI50 (NCI/ADR-RES) was 21.3 µM (inactive), the GI50 (HOP-62) was 27.6 µM (inactive) and the GI50 (MOLT-4) was 20 µM (inactive). The GI50 (ACHN) was 21.6 µM (inactive), the GI50 (U-251) was 15.9 µM (inactive) and the GI50 (MDA-N) was 17.9 µM (inactive). For the same compound, the GI50 (HCT-15) was 27.8 µM, the GI50 (DU-145) was 33 µM (inactive) and the GI50 (NCI-H522) was 18.1 µM (inactive). The GI50 (NCI-H460) was 16.8 µM (inactive).
